Data on 21 molecules can be found in paper PMC9972480, “Synthesis of Quinoline and Dihydroquinoline Embelin Derivatives as Cardioprotective Agents” (Journal of Natural Products, 2023).

Data set [1] is described as follows: MTT cell viability assay (cytotoxicity) in H9c2 cardiomyocytes. The note with it: rat, H9c2 cardiomyocytes, 24 h, MTT; for viability at 24 h, 10 µM / viability at 24 h, 20 µM: mean ± SD, n = 3; for IC50 at 24 h: H9c2 cardiomyocytes (embryonic heart-derived cells), stated for both types of cells. In kind it is cell-based, rat. The procedure: (§1) The potential cytotoxicity of embelin (1) together with derivatives (4a–4m, 5a–5d, 6a–6m) was tested in cardiomyocytes and macrophages in order to ensure that compounds lack toxicity also in immune cells. Cell viability was determined by the MTT assay.[58] Four dihydroquinoline derivatives (4b, 4f, 4i, and 4m) and six quinoline compounds (6a, 6d, 6e, 6i, 6k, and 6m) maintained higher viable cell rates in both types of cells. IC50 values of these derivatives were higher than 40 μM and were selected for further analysis.
(§2) J774A.1 murine macrophage cells, H9c2 embryonic rat heart-derived cells, and MCF-7 breast cancer cells were purchased from American Type Cell Culture (ATCC, Manassas, VA, USA). Cells were cultured in Dulbecco’s modified Eagle medium with 10% fetal bovine serum and 1% penicillin/streptomycin (Lonza) and were maintained at 37 °C in a humidified incubator containing 5% CO2.
(§3) Cell viability was assessed by conducting an MTT [3-(4,5-dimethylthiazol-2-yl)-2,5-diphenyltetrazolium bromide dye] assay. Briefly, J 774A.1, H9c2, and MCF7 cells were seeded in 96-well plates for 24 h. Then, cells were treated with DOX in the absence or presence of compounds. MTT (Sigma) reagent was added to the medium for 1 h at 37 °C. Then, the formazan was dissolved in dimethyl sulfoxide (DMSO, 100 μL). Absorbance was measured at 540 nm with a microplate reader (BMG Labtech).

Data set [2] can be described thus: MTT cell viability assay (cytotoxicity) in J774 macrophages. Format: cell-based, murine. The note with it: mouse. The procedure:
as §1, §2, §3

For orientation: viability means the share of living cells, or the viability signal relative to a control. For orientation: melting point means the temperature, or range, at which the solid turns liquid. The term IC50 denotes the concentration that inhibits the measured activity by half. Low readings indicate higher potency, high ones lower potency.

Structures are written as SMILES.

In data set [1], `CCCCCCCCCCCC1=C(O)C(=O)C=C(Nc2ccc(Br)cc2)C1=O` [Compound 5c, 5-((4-Bromophenyl)amino)-2-hydroxy-3-undecylcyclohexa-2,5-diene-1,4-dione] yielded a viability at 24 h, 10 µM of 61.9 ± 2.7% and a viability at 24 h, 20 µM of 56.1 ± 3.4%. In data set [2], the viability at 24 h, 10 µM is 56.9 ± 5.5% and the viability at 24 h, 20 µM turned out to be 39.4 ± 5.3%.

Take `CCCCCCCCCCCC1=C(O)C(=O)C2=C(Nc3ccccc3C2c2ccc(Cl)cc2)C1=O` (stereo not shown) [Compound 4c, 2-Hydroxy-9-(4-chlorophenyl)-3-undecyl-9,10-dihydroacridine-1,4-dione]: the melting point was 139 to 141 °C. Further, in data set [1], the viability at 24 h, 10 µM is 98.9 ± 3.4% and the viability at 24 h, 20 µM was determined as 93.9 ± 2.3%. In addition, in data set [2], the viability at 24 h, 10 µM is 49.1 ± 3.4% and the viability at 24 h, 20 µM came out at 39.5 ± 3.6%.

As for `CCCCCCCCCCCC1=C(O)C(=O)c2c(nc3ccccc3c2-c2ccc(C)c(C)c2)C1=O` [Compound 6i, 2-Hydroxy-9-(3,4-dimethylphenyl)-3-undecylacridine-1,4-dione], in data set [1], the IC50 at 24 h was above 40 µM; the viability at 24 h, 10 µM was 99.8 ± 3%; the viability at 24 h, 20 µM was found to be 92.6 ± 5.4%. In data set [2], this molecule registered an IC50 at 24 h above 40 µM; a viability at 24 h, 10 µM of 93.3 ± 4.3%; a viability at 24 h, 20 µM of 75.1 ± 2.9%.

Regarding `CCCCCCCCCCCC1=C(O)C(=O)C=C(O)C1=O` [Compound 1, embelin], the viability at 24 h, 10 µM amounted to 36.9 ± 5.8% in data set [1] and 21.3 ± 2.7% in data set [2] (J774 macrophages, 10 μM, 24 h, MTT, mean ± SD, n = 3, read-out: Cell viability (%) J774 macrophages 10 μM). Moreover, the viability at 24 h, 20 µM in data set [1] was found to be 8.3 ± 0.1%; in data set [2] (J774 macrophages, 20 μM, 24 h, MTT, mean ± SD, n = 3, read-out: Cell viability (%) J774 macrophages 20 μM), 15.3 ± 0.8%.

For the molecule `CCCCCCCCCCCC1=C(O)C(=O)C2=C(Nc3ccc(OC)cc3C2c2ccc([N+](=O)[O-])cc2)C1=O` (stereo not shown) [Compound 4k, 2-Hydroxy-7-methoxy-9-(4-nitrophenyl)-3-undecyl-9,10-dihydroacridine-1,4-dione], the melting point was in the range of 153 to 155 °C. Besides, in data set [1], the viability at 24 h, 10 µM was determined as 99.7 ± 1.1% and the viability at 24 h, 20 µM came to 90.7 ± 1.5%. Besides, in data set [2], the viability at 24 h, 10 µM worked out at 55.6 ± 6.7% and the viability at 24 h, 20 µM was 37.8 ± 4.8%.

Consider `CCCCCCCCCCCC1=C(O)C(=O)c2c(nc3ccccc3c2-c2ccc(OC)c(OC)c2)C1=O` [Compound 6j, 2-Hydroxy-9-(3,4-dimethoxyphenyl)-3-undecylacridine-1,4-dione], for which the values for the viability at 24 h, 10 µM in data set [1] and in data set [2] were 85.5 ± 6.2% and 85.2 ± 3.7%, respectively. For the same molecule, the viability at 24 h, 20 µM in data set [1] stood at 68.4 ± 8.6%; in data set [2], 64 ± 2.6%.

In data set [1], `CCCCCCCCCCCC1=C(O)C(=O)c2c(nc3cc(C)cc(C)c3c2-c2ccc([N+](=O)[O-])cc2)C1=O` [Compound 6l, 2-Hydroxy-6,8-dimethyl-9-(4-nitrophenyl)-3-undecylacridine-1,4-dione] yielded a viability at 24 h, 10 µM of 64.8 ± 6.7% and a viability at 24 h, 20 µM of 55.9 ± 9.4%. In data set [2], the viability at 24 h, 10 µM worked out at 82.3 ± 0.3% and the viability at 24 h, 20 µM came out at 63.8 ± 4.8%.

`CCCCCCCCCCCC1=C(O)C(=O)C2=C(Nc3ccccc3C2c2ccc([N+](=O)[O-])cc2)C1=O` (stereo not shown) [Compound 4a, 2-Hydroxy-9-(4-nitrophenyl)-3-undecyl-9,10-dihydroacridine-1,4-dione] yielded a melting point of 164 to 166 °C. In data set [1], this molecule showed a viability at 24 h, 10 µM of 94.8 ± 3.5% and a viability at 24 h, 20 µM of 89.4 ± 0.6%. Also, in data set [2], the viability at 24 h, 10 µM came to 50 ± 5.6% and the viability at 24 h, 20 µM is 43.7 ± 2%.

As for `CCCCCCCCCCCC1=C(O)C(=O)c2c(nc3ccccc3c2-c2ccccc2)C1=O` [Compound 6b, 2-Hydroxy-9-phenyl-3-undecylacridine-1,4-dione], the viability at 24 h, 10 µM in data set [1] worked out at 99.7 ± 2.1%; in data set [2] it was 81.8 ± 4.7%. Further, the figures for the viability at 24 h, 20 µM in data set [1] and in data set [2] were 68.1 ± 4.6% and 63.9 ± 6.6%, respectively.

In data set [1], `CCCCCCCCCCCC1=C(O)C(=O)C=C(Nc2cccc([N+](=O)[O-])c2)C1=O` [Compound 5d, 2-Hydroxy-5-((3-nitrophenyl)amino)-3-undecylcyclohexa-2,5-diene-1,4-dione] gave a viability at 24 h, 10 µM of 67.8 ± 2.1% and a viability at 24 h, 20 µM of 57.5 ± 1.4%. Moreover, in data set [2], the viability at 24 h, 10 µM turned out to be 65.5 ± 1.9% and the viability at 24 h, 20 µM came to 50.8 ± 7%.

In the case of `CCCCCCCCCCCC1=C(O)C(=O)C2=C(Nc3ccccc3C2c2cccc(F)c2)C1=O` (stereo not shown) [Compound 4f, 2-Hydroxy-9-(3-fluorophenyl)-3-undecyl-9,10-dihydroacridine-1,4-dione], the melting point lay within 240 to 242 °C. In data set [1], this molecule yielded an IC50 at 24 h above 40 µM; a viability at 24 h, 10 µM of 88.7 ± 5.3%; a viability at 24 h, 20 µM of 81.1 ± 2.9%. Also, in data set [2], the IC50 at 24 h is above 40 µM; the viability at 24 h, 10 µM stood at 99.5 ± 1.3%; the viability at 24 h, 20 µM came out at 97.8 ± 0.6%.

The molecule `CCCCCCCCCCCC1=C(O)C(=O)C2=C(Nc3ccccc3C2c2ccc(F)cc2)C1=O` (stereo not shown) [Compound 4e, 2-Hydroxy-9-(4-fluorophenyl)-3-undecyl-9,10-dihydroacridine-1,4-dione] came in with a melting point of 140 to 142 °C. In data set [1], this molecule registered a viability at 24 h, 10 µM of 93.4 ± 7.2% and a viability at 24 h, 20 µM of 83.7 ± 1.5%. In data set [2], the viability at 24 h, 10 µM came out at 57.3 ± 3.8% and the viability at 24 h, 20 µM came out at 44.6 ± 3.3%.

In the case of `CCCCCCCCCCCC1=C(O)C(=O)C2=C(Nc3ccccc3C2c2ccc(C(=O)OC)cc2)C1=O` (stereo not shown) [Compound 4g, Methyl 4-(2-hydroxy-1,4-dioxo-3-undecyl-1,4,9,10-tetrahydroacridin-9-yl)benzoate], the melting point lay in the range of 146 to 148 °C. In data set [1], this molecule displayed a viability at 24 h, 10 µM of 72.6 ± 1.1% and a viability at 24 h, 20 µM of 62.1 ± 1.3%. In data set [2], this molecule returned a viability at 24 h, 10 µM of 31.2 ± 5.3% and a viability at 24 h, 20 µM of 29.6 ± 3.9%.

As for `CCCCCCCCCCCC1=C(O)C(=O)C2=C(Nc3ccccc3C2c2ccc(Br)cc2)C1=O` (stereo not shown) [Compound 4d, 2-Hydroxy-9-(4-bromophenyl)-3-undecyl-9,10-dihydroacridine-1,4-dione], the melting point lay in the range of 139 to 140 °C. Moreover, in data set [1], the viability at 24 h, 10 µM came out at 99.5 ± 2.7% and the viability at 24 h, 20 µM came out at 98.9 ± 6.1%. In data set [2], this molecule came in with a viability at 24 h, 10 µM of 38.5 ± 5.9% and a viability at 24 h, 20 µM of 32.9 ± 3.4%.

In data set [1], `CCCCCCCCCCCC1=C(O)C(=O)c2c(nc3ccccc3c2-c2ccsc2)C1=O` [Compound 6h, 2-Hydroxy-9-(thiophen-3-yl)-3-undecylacridine-1,4-dione] returned a viability at 24 h, 10 µM of 75.3 ± 5% and a viability at 24 h, 20 µM of 71.1 ± 2.8%. Also, in data set [2], the viability at 24 h, 10 µM stood at 73.5 ± 2.8% and the viability at 24 h, 20 µM came to 56.7 ± 3.3%.

In data set [1], `CCCCCCCCCCCC1=C(O)C(=O)C=C(Nc2ccc(OC)cc2)C1=O` [Compound 5b, 2-Hydroxy-5-((4-methoxyphenyl)amino)-3-undecylcyclohexa-2,5-diene-1,4-dione] gave a viability at 24 h, 10 µM of 89.3 ± 9.2% and a viability at 24 h, 20 µM of 87.4 ± 6.7%. In data set [2], this molecule returned a viability at 24 h, 10 µM of 68.4 ± 3.8% and a viability at 24 h, 20 µM of 48.3 ± 1.7%.

With `CCCCCCCCCCCC1=C(O)C(=O)c2c(nc3ccccc3c2-c2ccc(C(=O)OC)cc2)C1=O` [Compound 6g, Methyl 4-(2-hydroxy-1,4-dioxo-3-undecyl-1,4-dihydroacridin-9-yl)benzoate], in data set [1], the viability at 24 h, 10 µM turned out to be 88.7 ± 10.4% and the viability at 24 h, 20 µM worked out at 70.6 ± 3%. In data set [2], this molecule came in with a viability at 24 h, 10 µM of 78.4 ± 5.7% and a viability at 24 h, 20 µM of 42.2 ± 0.3%.

Take `CCCCCCCCCCCC1=C(O)C(=O)C=C(Nc2ccccc2)C1=O` [Compound 5a, 2-Hydroxy-5-(phenylamino)-3-undecylcyclohexa-2,5-diene-1,4-dione]: in data set [1], the viability at 24 h, 10 µM is 99 ± 7.1% and the viability at 24 h, 20 µM was found to be 83 ± 7%. In data set [2], this molecule showed a viability at 24 h, 10 µM of 56.9 ± 4% and a viability at 24 h, 20 µM of 56.2 ± 2%.

As to `CCCCCCCCCCCC1=C(O)C(=O)c2c(nc3ccccc3c2-c2ccc(F)cc2)C1=O` [Compound 6e, 2-Hydroxy-9-(4-fluorophenyl)-3-undecylacridine-1,4-dione], in data set [1], the IC50 at 24 h is above 40 µM; the viability at 24 h, 10 µM was determined as 96.7 ± 8.1%; the viability at 24 h, 20 µM was 93.9 ± 0.9%. Also, in data set [2], the IC50 at 24 h is above 40 µM; the viability at 24 h, 10 µM worked out at 93.1 ± 4.5%; the viability at 24 h, 20 µM turned out to be 76.6 ± 5.9%.

For the molecule `CCCCCCCCCCCC1=C(O)C(=O)c2c(nc3ccccc3c2-c2ccc(Cl)cc2)C1=O` [Compound 6c, 2-Hydroxy-9-(4-chlorophenyl)-3-undecylacridine-1,4-dione], in data set [1], the viability at 24 h, 10 µM came out at 95 ± 8.4% and the viability at 24 h, 20 µM was found to be 74.3 ± 4.8%. In data set [2], this molecule yielded a viability at 24 h, 10 µM of 83.4 ± 0.5% and a viability at 24 h, 20 µM of 55.8 ± 5.7%.

In data set [1], `CCCCCCCCCCCC1=C(O)C(=O)c2c(nc3ccccc3c2-c2cccc(F)c2)C1=O` [Compound 6f, 2-Hydroxy-9-(3-fluorophenyl)-3-undecylacridine-1,4-dione] registered a viability at 24 h, 10 µM of 98.3 ± 4.9% and a viability at 24 h, 20 µM of 84.5 ± 4.3%. In data set [2], this molecule yielded a viability at 24 h, 10 µM of 79.3 ± 4.6% and a viability at 24 h, 20 µM of 62.2 ± 4.3%.
